Measurements published in paper PMC6115460, “Extreme amyloid polymorphism in Staphylococcus aureus virulent PSMα peptides” (Nature Communications, 2018).

Assays:
[1] = Fibril thermal-stability assay (TEM); type: physicochemical; conditions: 10 mM (LFKFFK in ultra-pure water, IIKIIK in DMSO), 3 days at room temperature, 50 °C for 5 min, then cooled at room temperature 20 min
Procedure: For the fibril thermal-stability assay (Fig. 5), peptides were dissolved to 10 mM (LFKFFK in ultra-pure water and IIKIIK in DMSO) and incubated at room temperature for 3 days. Samples were applied directly onto copper TEM grids and stained as described above. The samples were then incubated at 50 °C in a pre-heated thermoblock for 5 min and immediately applied onto TEM grids. The samples were then allowed to cool down at room temperature for 20 min and applied onto TEM grids. Micrographs were recorded as described above.

[2] = test system: Staphylococcus hominis; assay: Disc diffusion assay testing antibacterial activity; type: cell-based; conditions: ATTC 27844, peptide 50 mg ml−1 in ultra-pure water (LFKFFK, KLFKFFK) or DMSO (IIKVIK, IIKIIK) loaded on discs, BHI-agar, incubated over-night, coincides with activity in solution (Supplementary Fig. 4)
Procedure: (§1) Micrococcus luteus (an environmental isolate) was a kind gift from Prof. Charles Greenblatt from the Hebrew university in Jerusalem, Israel. An inoculum was grown in Luria-Bertani (LB) medium at 30 °C with 220 rpm shaking overnight. Staphylococcus hominis (ATTC 27844) and Staphylococcus aureus (ATCC 25923) were purchased from ATCC, USA. An inoculum was grown in brain-heart infusion (BHI) media at 37 °C with 220 rpm shaking overnight.
(§2) Bacterial cultures were grown overnight as described above and diluted 1000-fold to a fresh media until growth reached to optical density of ~0.4 measured at 600 nm (OD600). The refreshed cultures were plated on LB-agar or BHI-agar according to the bacterial strain. The antibacterial activity of PSMα segments was examined: Lyophilized peptides were dissolved in ultra-pure water (LFKFFK and KLFKFFK) or DMSO (IIKVIK and IIKIIK) to a final concentration of 50 mg ml^−1. The concentrated peptide solutions were loaded on blank antimicrobial susceptibility discs (Oxoid, UK). Discs loaded with ultra-pure water or DMSO were used as controls. The discs were gently placed on bacteria plated agar and incubated over-night at the appropriate temperatures.

[3] = test system: Micrococcus luteus; assay: as above; type: cell-based; conditions: peptide 50 mg ml−1 in ultra-pure water (LFKFFK, KLFKFFK) or DMSO (IIKVIK, IIKIIK) loaded on discs, LB-agar, incubated over-night, coincides with activity in solution (Supplementary Fig. 4)
Procedure: as §1, §2

[4] = Fibril formation by transmission electron microscopy; type: physicochemical; conditions: negative stain TEM
Procedure: Fibrillated PSMα1 and PSMα4 samples were collected following the ThT fibrillation kinetics assay (as described above) by combining the contents of 2–3 wells from the plate. Solutions were centrifuged at 21,000 × g and the supernatant was discarded. The pellet containing the fibrils was re-suspended in 20 μl of ultra-pure water.
Fibril formation of the short segments, IIKIIK, IIKVIK, LFKFFK and KLFKFFK, was examined for peptides dissolved directly from the powder form. IIKVIK from PSMα1 and IIKIIK from PSMα4 were re-suspended to 20 mM with 75% DMSO in ultra-pure water and incubated for about 1 week at room temperature (Fig. 2b). LFKFFK and KLFKFFK from PSMα3 were re-suspended in ultra-pure water to 10 mM. LFKFFK was incubated for about a month and KLFKFFK was incubated for 14 days at room temperature (Fig. 3b).
Five-microliter samples were applied directly onto copper TEM grids with support films of Formvar/Carbon (Ted Pella), which were charged by glow-discharge (PELCO easiGlow, Ted Pella) immediately before use. Grids were allowed to adhere for 2 min and negatively stained with 5 μl of 2% uranyl acetate solution. Micrographs were recorded using FEI Tecnai G2 T20 S-Twin transmission electron microscope operated at an accelerating voltage of 200 KeV (located at the Department of Materials Science & Engineering at the Technion, Israel), FEI Tecnai G2 T12 TEM operated at an accelerating voltage of 120 kV (located at the Russell Berrie Electron Microscopy Center of Soft Matter at the Technion, Israel). Images were recorded digitally by a Gatan US 1000 CCD camera using the DigitalMicrograph® software.

[5] = test system: Staphylococcus aureus; assay: Disc diffusion assay testing antibacterial activity; type: cell-based; conditions: ATCC 25923, peptide 50 mg ml−1 in ultra-pure water loaded on discs, BHI-agar, incubated over-night
Procedure: as §1, §2

[6] = Thioflavin T fluorescence fibrillation kinetics assay; conditions: 50 µM peptide, 200 µM ThT; Tris buffer pH 7.5 (PSMα1 and mutant) or ultra-pure water (PSMα4 and mutant); 37 °C; about 100 h; mean of triplicates
Procedure: Final concentrations for each reaction were 50 µM peptide (PSMα1, PSMα4, or their mutants) and 200 µM ThT. Blank solutions were also prepared for each reaction, containing everything but the peptides. The reaction mixture was carried out in a black 96-well flat-bottom plate (Greiner bio-one) covered with a thermal seal film (EXCEL scientific) and incubated in a plate reader (CLARIOstar BMG LABTECH) at a temperature of 37 °C with 500 rpm shaking for 85 s before each reading cycle, and up to 1000 cycles of 6 min each. Measurements were made in triplicates. Fluorescence was measured by excitation at 438 ± 20 nm and emission at 490 ± 20 nm over a period of about 100 h. All triplicate values were averaged, appropriate blanks were subtracted, and the resulting values were plotted against time. Calculated standard errors of the mean are presented as error bars. The entire experiment was repeated at least three times on different days.

[7] = 20 mM in 75% DMSO in ultra-pure water, about 1 week at room temperature
[8] = 10 mM in ultra-pure water, room temperature, LFKFFK about a month, KLFKFFK 14 days

Row | Substance | thermal stability of fibrils [1] | antibacterial activity against S. hominis [2] | antibacterial activity against M. luteus [3] | fibril formation, electron micrographs [4, 7] | toxicity to S. aureus [5] | fibril formation, electron micrographs [4, 8] | Thioflavin T binding [6]
1 | IIKIIK [spine segment of PSMα4; acetylated N-terminus and amidated C-terminus, or unmodified termini for crystallography] | remain stable | do not elicit antibacterial activity | do not elicit antibacterial activity | fibrils |  |  | 
2 | LFKFFK [truncated segment of PSMα3; acetylated N-terminus and amidated C-terminus, or unmodified termini for crystallography] | dissolve upon heating to 50 °C, and reform upon cooling | dose-dependent antibacterial activity | dose-dependent antibacterial activity |  | not toxic | fibrils and nano-crystals | 
3 | KLFKFFK [one-residue longer PSMα3 segment] |  | dose-dependent antibacterial activity | dose-dependent antibacterial activity |  | not toxic | straight and twisted crystalline fibrils | 
4 | MAIVGTIPKPIKAIIDIFAK |  |  |  |  |  |  | no ThT binding
5 | IIKVIK [spine segment of PSMα1; acetylated N-terminus and amidated C-terminus, or unmodified termini for crystallography] |  | do not elicit antibacterial activity | do not elicit antibacterial activity | fibrils |  |  | 
6 | MGIIAGPIPVIKSLIEQFTGK |  |  |  |  |  |  | no ThT binding
